Measurements reported in ChEMBL document CHEMBL1201862, “PubChem BioAssay data set” (2004).
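Each compound was tested at five concentrations against cells in 96-well plates for 48 hours. GI50 is the concentration that inhibits growth by half.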 The source made the active and inactive calls. No stated cut-off is given here; in the data, active = GI50 up to about 1.1 µM and inactive = higher.

How the values were obtained:
Test in all cases: NCI tumour cell line growth inhibition, 48 h
A498 = test system: A498
A549 = test system: A549
ACHN = test system: ACHN
CAKI-1 = test system: CAKI-1
CCRF-CEM = test system: CCRF-CEM
COLO 205 = test system: COLO 205
DLD-1 = test system: DLD-1
DMS-114 = test system: DMS-114
DMS-273 = test system: DMS-273
EKVX = test system: EKVX
HCT-116 = test system: HCT-116
HCT-15 = test system: HCT-15
HL-60 = test system: HL-60
HOP-18 = test system: HOP-18
HOP-92 = test system: HOP-92
HT-29 = test system: HT-29
IGROV-1 = test system: IGROV-1
K562 = test system: K562
KM-20L2 = test system: KM-20L2
KM12 = test system: KM12
LOX IMVI = test system: LOX IMVI
LXFL 529 = test system: LXFL 529
M14 = test system: M14
MOLT-4 = test system: MOLT-4
Malme-3M = test system: Malme-3M
NCI-H226 = test system: NCI-H226
NCI-H23 = test system: NCI-H23
NCI-H460 = test system: NCI-H460
OVCAR-4 = test system: OVCAR-4
OVCAR-5 = test system: OVCAR-5
OVCAR-8 = test system: OVCAR-8
RPMI-8226 = test system: RPMI-8226
RXF 393 = test system: RXF 393
SF-268 = test system: SF-268
SF-295 = test system: SF-295
SF-539 = test system: SF-539
SK-MEL-28 = test system: SK-MEL-28
SK-MEL-2 = test system: SK-MEL-2
SK-MEL-5 = test system: SK-MEL-5
SN12C = test system: SN12C
SNB-19 = test system: SNB-19
SNB-75 = test system: SNB-75
SNB-78 = test system: SNB-78
SR = test system: SR
SW-620 = test system: SW-620
TK-10 = test system: TK-10
U-251 = test system: U-251
UACC-257 = test system: UACC-257
UO-31 = test system: UO-31
XF498 = test system: XF498
786-0 = test system: 786-0
HCC 2998 = test system: HCC 2998
HOP-62 = test system: HOP-62
M19-MEL = test system: M19-MEL
NCI-H522 = test system: NCI-H522
SK-OV-3 = test system: SK-OV-3
UACC-62 = test system: UACC-62

For `Nc1nc(=O)[nH]c2c1cnn2COCCO`, the GI50 (A498) was > 100 µM (inactive), the GI50 (A549) was > 100 µM (inactive) and the GI50 (ACHN) was > 100 µM (inactive). For the same compound, the GI50 (CAKI-1) was > 100 µM (inactive), the GI50 (CCRF-CEM) was > 100 µM (inactive) and the GI50 (COLO 205) was > 100 µM (inactive). For the same compound, the GI50 (DLD-1) was > 100 µM (inactive), the GI50 (DMS-114) was > 100 µM (inactive) and the GI50 (DMS-273) was > 100 µM (inactive). For the same compound, the GI50 (EKVX) was > 100 µM (inactive), the GI50 (HCT-116) was > 100 µM (inactive) and the GI50 (HCT-15) was over 100 µM. For the same compound, the GI50 (HL-60) was > 100 µM (inactive), the GI50 (HOP-18) was > 100 µM (inactive) and the GI50 (HOP-92) was > 100 µM (inactive). The GI50 (HT-29) was > 100 µM (inactive), the GI50 (IGROV-1) was > 100 µM (inactive) and the GI50 (K562) was > 100 µM (inactive). The GI50 (KM-20L2) was 2.33 µM (inactive), the GI50 (KM12) was > 100 µM (inactive) and the GI50 (LOX IMVI) was > 100 µM (inactive). For the same compound, the GI50 (LXFL 529) was > 100 µM (inactive), the GI50 (M14) was > 100 µM (inactive) and the GI50 (MOLT-4) was > 100 µM (inactive). For the same compound, the GI50 (Malme-3M) was > 100 µM (inactive), the GI50 (NCI-H226) was 0.281 µM (active) and the GI50 (NCI-H23) was 17.3 µM (inactive). The GI50 (NCI-H460) was > 100 µM (inactive), the GI50 (OVCAR-4) was > 100 µM (inactive) and the GI50 (OVCAR-5) was 11.3 µM (inactive). The GI50 (OVCAR-8) was > 100 µM (inactive), the GI50 (RPMI-8226) was > 100 µM (inactive) and the GI50 (RXF 393) was 22.3 µM (inactive). For the same compound, the GI50 (SF-268) was > 100 µM (inactive), the GI50 (SF-295) was > 100 µM (inactive) and the GI50 (SF-539) was > 100 µM (inactive). The GI50 (SK-MEL-28) was 37.1 µM (inactive), the GI50 (SK-MEL-2) was > 100 µM (inactive) and the GI50 (SK-MEL-5) was > 100 µM (inactive). For the same compound, the GI50 (SN12C) was > 100 µM (inactive), the GI50 (SNB-19) was > 100 µM (inactive) and the GI50 (SNB-75) was > 100 µM (inactive). For the same compound, the GI50 (SNB-78) was 21.5 µM (inactive), the GI50 (SR) was > 100 µM (inactive) and the GI50 (SW-620) was > 100 µM (inactive). For the same compound, the GI50 (TK-10) was 20.7 µM (inactive), the GI50 (U-251) was 22.4 µM (inactive) and the GI50 (UACC-257) was > 100 µM (inactive). The GI50 (UO-31) was > 100 µM (inactive) and the GI50 (XF498) was > 100 µM (inactive).

`Brc1ccc(N2C[N+](c3ccc(Br)cc3)=NC(c3ccccc3)=N2)cc1` was tested, and the GI50 (786-0) was 16 µM (inactive), the GI50 (A498) was 18.3 µM (inactive) and the GI50 (A549) was 18.6 µM (inactive). The GI50 (ACHN) was 13.6 µM (inactive), the GI50 (CAKI-1) was 18.1 µM (inactive) and the GI50 (COLO 205) was 19.1 µM (inactive). For the same compound, the GI50 (DLD-1) was 12.6 µM (inactive), the GI50 (DMS-114) was 19.5 µM (inactive) and the GI50 (DMS-273) was 8.65 µM (inactive). For the same compound, the GI50 (EKVX) was 16.7 µM (inactive), the GI50 (HCC 2998) was 15.4 µM (inactive) and the GI50 (HCT-116) was 18.8 µM (inactive). For the same compound, the GI50 (HCT-15) was 17.8 µM, the GI50 (HL-60) was 17.1 µM (inactive) and the GI50 (HOP-18) was 14.8 µM (inactive). The GI50 (HOP-62) was 17.2 µM (inactive), the GI50 (HOP-92) was 18.7 µM (inactive) and the GI50 (HT-29) was 14.1 µM (inactive). The GI50 (IGROV-1) was 14.7 µM (inactive), the GI50 (K562) was 10.9 µM (inactive) and the GI50 (KM-20L2) was 18.2 µM (inactive). The GI50 (KM12) was 14.9 µM (inactive), the GI50 (LXFL 529) was 11.1 µM (inactive) and the GI50 (M14) was 13.4 µM (inactive). The GI50 (M19-MEL) was 14.3 µM (inactive), the GI50 (MOLT-4) was 14.2 µM (inactive) and the GI50 (Malme-3M) was 16.7 µM (inactive). The GI50 (NCI-H226) was 27.2 µM (inactive), the GI50 (NCI-H23) was 16.1 µM (inactive) and the GI50 (NCI-H460) was 13.6 µM (inactive). For the same compound, the GI50 (NCI-H522) was 19.6 µM (inactive), the GI50 (OVCAR-4) was 19.5 µM (inactive) and the GI50 (OVCAR-5) was 16.4 µM (inactive). The GI50 (OVCAR-8) was 21.9 µM (inactive), the GI50 (RPMI-8226) was 9.35 µM (inactive) and the GI50 (RXF 393) was 22.6 µM (inactive). The GI50 (SF-268) was 18.3 µM (inactive), the GI50 (SF-295) was 15.5 µM (inactive) and the GI50 (SF-539) was 15.8 µM (inactive). For the same compound, the GI50 (SK-MEL-28) was 23 µM (inactive), the GI50 (SK-MEL-2) was 17 µM (inactive) and the GI50 (SK-MEL-5) was 16 µM (inactive). The GI50 (SK-OV-3) was 19.6 µM (inactive), the GI50 (SN12C) was 19 µM (inactive) and the GI50 (SNB-19) was 17.3 µM (inactive). The GI50 (SNB-75) was 26.1 µM (inactive), the GI50 (SNB-78) was 31.2 µM (inactive) and the GI50 (SW-620) was 20.9 µM (inactive). The GI50 (TK-10) was 19.5 µM (inactive), the GI50 (U-251) was 19.1 µM (inactive) and the GI50 (UACC-257) was 17.5 µM (inactive). For the same compound, the GI50 (UACC-62) was 14.8 µM (inactive), the GI50 (UO-31) was 14.5 µM (inactive) and the GI50 (XF498) was 20.6 µM (inactive).
